Legend:
[1] = target: T1, Amine oxidase [flavin-containing] A (Homo sapiens, UniProt P21397); test: Inhibition of recombinant human MAO-A using p-tyramine as substrate at 100 uM preincubated for 15 mins followed by substrate addition by Amplex Red probe-based fluorometric analysis
T1 sequence (P21397 whole entry): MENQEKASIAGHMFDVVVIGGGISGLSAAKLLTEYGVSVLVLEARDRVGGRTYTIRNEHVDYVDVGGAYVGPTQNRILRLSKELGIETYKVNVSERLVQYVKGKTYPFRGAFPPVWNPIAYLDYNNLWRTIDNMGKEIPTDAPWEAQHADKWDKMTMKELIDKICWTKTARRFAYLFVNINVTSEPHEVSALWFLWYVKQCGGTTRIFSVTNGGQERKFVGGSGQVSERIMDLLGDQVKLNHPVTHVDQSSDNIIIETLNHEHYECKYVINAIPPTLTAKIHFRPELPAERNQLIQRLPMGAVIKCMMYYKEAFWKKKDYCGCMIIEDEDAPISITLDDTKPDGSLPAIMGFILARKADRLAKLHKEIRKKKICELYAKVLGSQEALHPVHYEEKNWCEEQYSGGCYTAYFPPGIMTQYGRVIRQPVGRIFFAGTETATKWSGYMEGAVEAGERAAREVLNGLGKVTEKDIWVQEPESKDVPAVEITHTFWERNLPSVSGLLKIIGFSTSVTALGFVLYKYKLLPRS

[2] = target: T2, Amine oxidase [flavin-containing] B (Homo sapiens, UniProt P27338); test: Inhibition of recombinant human MAO-B using p-tyramine as substrate preincubated for 15 mins followed by substrate addition by Amplex Red probe-based fluorometric analysis
T2 sequence (P27338 whole entry): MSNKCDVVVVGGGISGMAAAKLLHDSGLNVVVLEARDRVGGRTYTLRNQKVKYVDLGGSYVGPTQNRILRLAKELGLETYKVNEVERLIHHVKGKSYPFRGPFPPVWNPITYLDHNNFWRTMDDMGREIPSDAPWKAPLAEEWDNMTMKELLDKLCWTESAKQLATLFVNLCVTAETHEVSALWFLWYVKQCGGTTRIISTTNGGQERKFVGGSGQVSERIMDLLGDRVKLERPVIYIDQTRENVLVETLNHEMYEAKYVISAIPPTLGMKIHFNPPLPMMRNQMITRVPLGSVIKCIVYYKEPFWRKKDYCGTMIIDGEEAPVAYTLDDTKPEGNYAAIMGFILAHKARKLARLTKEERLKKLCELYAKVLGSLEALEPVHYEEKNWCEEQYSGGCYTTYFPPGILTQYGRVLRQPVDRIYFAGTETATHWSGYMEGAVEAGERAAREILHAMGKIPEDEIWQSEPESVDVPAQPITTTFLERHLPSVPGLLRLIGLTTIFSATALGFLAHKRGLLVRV

[3] = organism: Homo sapiens; test: Selectivity index, ratio of IC50 for recombinant human MAO-A to IC50 for recombinant human MAO-B
[4] = target: T1, Amine oxidase [flavin-containing] A; test: Inhibition of recombinant human MAO-A using p-tyramine as substrate preincubated for 15 mins followed by substrate addition by Amplex Red probe-based fluorometric analysis
[5] = system: HUVEC; test: Toxicity in HUVEC assessed as cell viability at 2.5 to 20 uM after 48 hrs by MTT assay; type: cell-based; settings: human
[6] = Neurotoxicity in rat PC12 cells assessed as cell viability at 2.5 to 20 uM after 48 hrs by MTT assay; type: toxicity, cell-based; settings: pc-12, 48 h
[7] = system: SH-SY5Y; test: Neurotoxicity in human SH-SY5Y cells assessed as cell viability at 2.5 to 20 uM after 48 hrs by MTT assay; type: toxicity, cell-based

SMILES | inhibition (INH) [1] | IC50 [2] | Ratio IC50 [3] | IC50 [4] | Activity [5] | Activity [6] | Activity [7]
Cc1ccc2oc(=O)c(-c3ccccc3OCc3cccc(F)c3)cc2c1 | Not Active | 0.253 µM | > 395 | – | – | – | –
Cc1ccc2oc(=O)c(-c3cccc(OCCCCN(C)C)c3)cc2c1 | – | 1.13 µM | 23.6 | 26.7 µM | – | – | –
Cc1ccc2oc(=O)c(-c3ccc(OCc4cccc(F)c4)cc3)cc2c1 | Not Active | 0.175 µM | > 572 | – | – | – | –
Cc1ccc(S(=O)(=O)Oc2cccc(-c3cc4cc(C)ccc4oc3=O)c2)cc1 | Not Active | 0.305 µM | > 328 | – | – | – | –
CC(=O)Oc1ccc(-c2cc3cc(C)ccc3oc2=O)cc1 | Not Active | 0.401 µM | > 249 | – | – | – | –
Cc1ccc2oc(=O)c(-c3cccc4ccccc34)cc2c1 | – | 6.49 µM | 8.55 | 55.5 µM | – | – | –
Cc1ccc2oc(=O)c(-c3cccnc3)cc2c1 | – | 2.58 µM | 2.59 | 6.67 µM | – | – | –
Cc1ccc2oc(=O)c(-c3ccccc3OCc3ccccc3)cc2c1 | Not Active | 0.256 µM | > 390 | – | – | – | –
Cc1ccc2oc(=O)c(-c3cccc(OCc4ccccc4)c3)cc2c1 | Not Active | 0.201 µM | > 498 | – | – | – | –
Cc1ccc2oc(=O)c(-c3cccc(OCCCN(C)C)c3)cc2c1 | – | 0.905 µM | 38.6 | 34.9 µM | – | – | –
Cc1ccc2oc(=O)c(-c3cccc(OCCCCBr)c3)cc2c1 | – | 10.7 µM | 3.79 | 40.6 µM | – | – | –
Cc1ccc2oc(=O)c(-c3c[nH]c4ccccc34)cc2c1 | – | 5.67 µM | 7.75 | 43.9 µM | – | – | –
CC(=O)Oc1cccc(-c2cc3cc(C)ccc3oc2=O)c1 | Not Active | 0.714 µM | > 140 | – | – | – | –
Cc1ccc2oc(=O)c(-c3cccc(OC(=O)c4ccccc4)c3)cc2c1 | – | 0.651 µM | 24.2 | 15.8 µM | – | – | –
Cc1ccc2oc(=O)c(-c3cccs3)cc2c1 | – | 3.76 µM | 2.16 | 8.09 µM | – | – | –
Cc1ccc2oc(=O)c(-c3cccc(OCc4cccc(F)c4)c3)cc2c1 | Not Active | 0.0601 µM | > 1660 | – | Non-toxic | Non-toxic | Non-toxic
Cc1ccc2oc(=O)c(-c3ccc(OCc4ccccc4)cc3)cc2c1 | Not Active | 0.106 µM | > 947 | – | – | – | –
Cc1ccc2oc(=O)c(-c3cccc(OCCCBr)c3)cc2c1 | – | 3.67 µM | 5.3 | 19.5 µM | – | – | –
CC(=O)Oc1ccccc1-c1cc2cc(C)ccc2oc1=O | Not Active | 0.938 µM | > 107 | – | – | – | –
Cc1ccc2oc(=O)c(-c3cccc(OCCN(C)C)c3)cc2c1 | Not Active | 0.218 µM | > 459 | – | – | – | –
Cc1ccc2oc(=O)c(-c3cccc(OC(=O)N(C)C)c3)cc2c1 | Not Active | 4.43 µM | > 22.6 | – | – | – | –
Cc1ccc2oc(=O)c(-c3cccc(OCCBr)c3)cc2c1 | – | 2.45 µM | 8.47 | 20.7 µM | – | – | –

— ChEMBL document CHEMBL3734688, “Synthesis and evaluation of 6-methylcoumarin derivatives as potent and selective monoamine oxidase B inhibitors” (Medchemcomm, 2015)
